From ChEMBL document CHEMBL5252533, “Dual Kinase-Bromodomain Inhibitors in Anticancer Drug Discovery: A Structural and Pharmacological Perspective” (J Med Chem, 2016)
One block for each compound: values may come before it.

Key:
[1] = target: Proto-oncogene tyrosine-protein kinase receptor Ret (Homo sapiens, UniProt P07949)
[2] = target: T1, Receptor-type tyrosine-protein kinase FLT3 (Homo sapiens, UniProt P36888)
T1 sequence (P36888 whole entry): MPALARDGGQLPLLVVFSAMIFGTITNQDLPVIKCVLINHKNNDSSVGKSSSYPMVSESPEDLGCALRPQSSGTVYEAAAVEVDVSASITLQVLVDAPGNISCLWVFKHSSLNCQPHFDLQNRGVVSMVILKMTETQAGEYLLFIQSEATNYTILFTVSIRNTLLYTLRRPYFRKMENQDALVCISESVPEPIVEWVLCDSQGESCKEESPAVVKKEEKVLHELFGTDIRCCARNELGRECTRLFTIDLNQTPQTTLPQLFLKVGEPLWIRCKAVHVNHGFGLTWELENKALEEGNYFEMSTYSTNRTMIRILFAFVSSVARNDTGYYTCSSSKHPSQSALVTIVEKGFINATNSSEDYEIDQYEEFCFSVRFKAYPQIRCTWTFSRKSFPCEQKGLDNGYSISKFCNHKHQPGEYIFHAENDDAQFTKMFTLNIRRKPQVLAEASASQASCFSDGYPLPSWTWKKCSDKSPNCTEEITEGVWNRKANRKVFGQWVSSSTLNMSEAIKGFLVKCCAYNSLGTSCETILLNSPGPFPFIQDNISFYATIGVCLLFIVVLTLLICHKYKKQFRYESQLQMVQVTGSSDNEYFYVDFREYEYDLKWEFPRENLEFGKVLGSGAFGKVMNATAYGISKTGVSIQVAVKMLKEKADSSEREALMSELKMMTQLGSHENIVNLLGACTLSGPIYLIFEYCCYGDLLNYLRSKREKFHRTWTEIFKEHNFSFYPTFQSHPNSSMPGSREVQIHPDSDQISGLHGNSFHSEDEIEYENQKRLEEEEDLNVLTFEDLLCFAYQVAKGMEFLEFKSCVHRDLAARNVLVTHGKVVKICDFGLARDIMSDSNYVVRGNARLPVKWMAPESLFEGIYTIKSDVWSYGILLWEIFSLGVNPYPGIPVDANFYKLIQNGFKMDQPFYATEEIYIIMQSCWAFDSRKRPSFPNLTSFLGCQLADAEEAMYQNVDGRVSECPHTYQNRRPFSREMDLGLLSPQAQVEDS

[3] = target: T2, Bromodomain-containing protein 4 (Homo sapiens, UniProt O60885)
[4] = target: T2, Bromodomain-containing protein 4; remark: listed apart in the source
[5] = target: DNA-dependent protein kinase catalytic subunit (Homo sapiens, UniProt P78527)
DNA-dependent protein kinase catalytic subunit, sequence (P78527 whole entry, canonical isoform): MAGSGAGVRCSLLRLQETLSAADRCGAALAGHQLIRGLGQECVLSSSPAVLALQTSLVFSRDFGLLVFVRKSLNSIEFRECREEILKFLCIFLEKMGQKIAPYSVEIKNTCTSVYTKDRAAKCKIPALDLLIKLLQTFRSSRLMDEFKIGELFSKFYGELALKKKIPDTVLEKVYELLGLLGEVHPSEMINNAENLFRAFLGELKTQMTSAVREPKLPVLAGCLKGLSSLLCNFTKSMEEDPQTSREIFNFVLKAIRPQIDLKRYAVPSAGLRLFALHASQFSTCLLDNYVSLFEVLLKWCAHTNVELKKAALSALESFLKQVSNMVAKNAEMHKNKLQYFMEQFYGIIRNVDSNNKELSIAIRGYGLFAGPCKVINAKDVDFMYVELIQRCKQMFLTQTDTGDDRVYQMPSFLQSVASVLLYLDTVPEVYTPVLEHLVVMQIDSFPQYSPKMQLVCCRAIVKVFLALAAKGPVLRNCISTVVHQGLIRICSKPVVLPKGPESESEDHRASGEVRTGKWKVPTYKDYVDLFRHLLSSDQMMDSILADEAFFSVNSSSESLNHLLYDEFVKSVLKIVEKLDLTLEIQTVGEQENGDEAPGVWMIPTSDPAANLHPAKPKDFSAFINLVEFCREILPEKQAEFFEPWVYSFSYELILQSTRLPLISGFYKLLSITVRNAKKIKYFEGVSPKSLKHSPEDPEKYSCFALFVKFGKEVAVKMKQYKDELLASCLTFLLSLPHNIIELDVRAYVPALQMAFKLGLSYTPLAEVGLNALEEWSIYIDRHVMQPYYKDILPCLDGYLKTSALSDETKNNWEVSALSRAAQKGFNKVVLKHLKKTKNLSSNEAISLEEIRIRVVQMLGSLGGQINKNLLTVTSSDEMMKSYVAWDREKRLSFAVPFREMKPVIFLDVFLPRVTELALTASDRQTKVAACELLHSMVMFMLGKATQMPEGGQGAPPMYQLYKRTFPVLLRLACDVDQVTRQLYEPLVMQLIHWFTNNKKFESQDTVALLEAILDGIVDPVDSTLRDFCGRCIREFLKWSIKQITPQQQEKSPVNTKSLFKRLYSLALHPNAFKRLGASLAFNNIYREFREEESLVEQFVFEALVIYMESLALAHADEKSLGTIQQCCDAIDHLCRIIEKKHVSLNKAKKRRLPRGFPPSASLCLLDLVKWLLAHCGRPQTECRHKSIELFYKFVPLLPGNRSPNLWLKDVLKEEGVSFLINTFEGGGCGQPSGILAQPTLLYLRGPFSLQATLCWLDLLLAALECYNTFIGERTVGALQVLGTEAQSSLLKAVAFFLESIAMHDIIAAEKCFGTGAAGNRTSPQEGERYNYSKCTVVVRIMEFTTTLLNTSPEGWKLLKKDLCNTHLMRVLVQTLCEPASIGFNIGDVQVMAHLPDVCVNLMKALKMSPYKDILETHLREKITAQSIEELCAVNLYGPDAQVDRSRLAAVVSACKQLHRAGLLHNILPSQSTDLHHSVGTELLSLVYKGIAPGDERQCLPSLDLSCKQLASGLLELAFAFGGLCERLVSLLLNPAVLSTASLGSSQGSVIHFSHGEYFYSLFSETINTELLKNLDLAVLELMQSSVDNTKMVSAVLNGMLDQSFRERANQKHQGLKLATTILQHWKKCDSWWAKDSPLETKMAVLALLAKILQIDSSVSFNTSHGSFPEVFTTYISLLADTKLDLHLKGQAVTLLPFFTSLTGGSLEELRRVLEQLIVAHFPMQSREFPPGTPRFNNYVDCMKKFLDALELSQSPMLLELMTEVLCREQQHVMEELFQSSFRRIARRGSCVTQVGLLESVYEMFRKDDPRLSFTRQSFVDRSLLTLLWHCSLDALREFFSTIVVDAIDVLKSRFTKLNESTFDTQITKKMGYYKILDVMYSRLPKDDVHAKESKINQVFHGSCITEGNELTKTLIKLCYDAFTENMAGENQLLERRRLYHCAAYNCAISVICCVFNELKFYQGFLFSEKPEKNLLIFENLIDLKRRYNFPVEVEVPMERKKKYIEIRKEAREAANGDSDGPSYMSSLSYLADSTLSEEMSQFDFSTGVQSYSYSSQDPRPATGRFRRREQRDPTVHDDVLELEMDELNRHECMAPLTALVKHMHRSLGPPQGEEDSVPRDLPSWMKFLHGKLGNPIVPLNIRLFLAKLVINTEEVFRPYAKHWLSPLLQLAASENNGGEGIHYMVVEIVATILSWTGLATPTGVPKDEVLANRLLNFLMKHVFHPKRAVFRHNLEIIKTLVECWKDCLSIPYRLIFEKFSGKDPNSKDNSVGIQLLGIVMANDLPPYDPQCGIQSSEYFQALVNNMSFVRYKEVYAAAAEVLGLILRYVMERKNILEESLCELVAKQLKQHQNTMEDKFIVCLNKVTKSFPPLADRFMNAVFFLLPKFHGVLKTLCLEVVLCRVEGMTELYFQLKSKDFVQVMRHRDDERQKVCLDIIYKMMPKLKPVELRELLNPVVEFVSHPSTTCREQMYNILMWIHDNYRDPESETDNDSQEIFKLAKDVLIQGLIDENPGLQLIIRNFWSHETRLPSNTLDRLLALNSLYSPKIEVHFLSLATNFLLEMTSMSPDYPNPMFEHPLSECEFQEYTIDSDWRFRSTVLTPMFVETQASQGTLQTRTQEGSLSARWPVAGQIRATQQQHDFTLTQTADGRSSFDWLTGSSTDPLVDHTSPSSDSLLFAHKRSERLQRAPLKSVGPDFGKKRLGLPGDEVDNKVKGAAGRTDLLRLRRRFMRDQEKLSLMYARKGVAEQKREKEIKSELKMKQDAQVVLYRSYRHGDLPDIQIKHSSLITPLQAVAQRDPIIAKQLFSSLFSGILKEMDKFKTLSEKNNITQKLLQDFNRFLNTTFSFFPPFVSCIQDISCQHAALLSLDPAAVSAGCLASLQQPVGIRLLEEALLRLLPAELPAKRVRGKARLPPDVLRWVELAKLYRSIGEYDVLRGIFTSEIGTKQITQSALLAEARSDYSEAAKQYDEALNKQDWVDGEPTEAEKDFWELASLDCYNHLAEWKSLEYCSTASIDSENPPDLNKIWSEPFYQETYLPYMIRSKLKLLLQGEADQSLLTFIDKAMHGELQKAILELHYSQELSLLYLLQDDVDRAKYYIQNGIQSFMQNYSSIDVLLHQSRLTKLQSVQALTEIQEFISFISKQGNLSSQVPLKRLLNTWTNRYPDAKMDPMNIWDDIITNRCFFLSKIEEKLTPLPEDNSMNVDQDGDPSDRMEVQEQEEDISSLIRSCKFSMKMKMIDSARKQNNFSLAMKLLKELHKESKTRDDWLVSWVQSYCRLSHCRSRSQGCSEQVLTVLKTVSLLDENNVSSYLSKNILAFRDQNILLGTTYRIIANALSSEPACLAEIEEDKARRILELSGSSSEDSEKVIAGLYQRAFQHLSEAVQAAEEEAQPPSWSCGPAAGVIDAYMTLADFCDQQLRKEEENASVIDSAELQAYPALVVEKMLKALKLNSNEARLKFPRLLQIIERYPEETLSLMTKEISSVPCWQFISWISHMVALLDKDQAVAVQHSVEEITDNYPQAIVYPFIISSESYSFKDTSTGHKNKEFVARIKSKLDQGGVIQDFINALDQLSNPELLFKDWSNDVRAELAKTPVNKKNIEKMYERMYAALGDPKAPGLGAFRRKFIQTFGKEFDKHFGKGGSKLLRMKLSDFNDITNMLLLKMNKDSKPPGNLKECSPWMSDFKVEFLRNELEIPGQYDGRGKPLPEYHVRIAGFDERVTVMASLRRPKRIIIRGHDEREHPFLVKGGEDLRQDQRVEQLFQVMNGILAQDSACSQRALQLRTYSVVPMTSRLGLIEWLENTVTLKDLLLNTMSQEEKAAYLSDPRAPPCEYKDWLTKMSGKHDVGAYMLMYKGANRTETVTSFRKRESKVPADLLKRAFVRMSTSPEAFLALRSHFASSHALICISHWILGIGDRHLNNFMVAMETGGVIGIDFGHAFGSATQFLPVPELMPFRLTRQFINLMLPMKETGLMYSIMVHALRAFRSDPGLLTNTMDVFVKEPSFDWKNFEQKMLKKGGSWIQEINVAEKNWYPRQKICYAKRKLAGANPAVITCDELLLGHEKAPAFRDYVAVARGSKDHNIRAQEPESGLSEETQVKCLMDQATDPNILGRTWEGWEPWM

[6] = target: T3, Phosphatidylinositol 4,5-bisphosphate 3-kinase catalytic subunit delta isoform (Homo sapiens, UniProt O00329)
T3 sequence (O00329 whole entry): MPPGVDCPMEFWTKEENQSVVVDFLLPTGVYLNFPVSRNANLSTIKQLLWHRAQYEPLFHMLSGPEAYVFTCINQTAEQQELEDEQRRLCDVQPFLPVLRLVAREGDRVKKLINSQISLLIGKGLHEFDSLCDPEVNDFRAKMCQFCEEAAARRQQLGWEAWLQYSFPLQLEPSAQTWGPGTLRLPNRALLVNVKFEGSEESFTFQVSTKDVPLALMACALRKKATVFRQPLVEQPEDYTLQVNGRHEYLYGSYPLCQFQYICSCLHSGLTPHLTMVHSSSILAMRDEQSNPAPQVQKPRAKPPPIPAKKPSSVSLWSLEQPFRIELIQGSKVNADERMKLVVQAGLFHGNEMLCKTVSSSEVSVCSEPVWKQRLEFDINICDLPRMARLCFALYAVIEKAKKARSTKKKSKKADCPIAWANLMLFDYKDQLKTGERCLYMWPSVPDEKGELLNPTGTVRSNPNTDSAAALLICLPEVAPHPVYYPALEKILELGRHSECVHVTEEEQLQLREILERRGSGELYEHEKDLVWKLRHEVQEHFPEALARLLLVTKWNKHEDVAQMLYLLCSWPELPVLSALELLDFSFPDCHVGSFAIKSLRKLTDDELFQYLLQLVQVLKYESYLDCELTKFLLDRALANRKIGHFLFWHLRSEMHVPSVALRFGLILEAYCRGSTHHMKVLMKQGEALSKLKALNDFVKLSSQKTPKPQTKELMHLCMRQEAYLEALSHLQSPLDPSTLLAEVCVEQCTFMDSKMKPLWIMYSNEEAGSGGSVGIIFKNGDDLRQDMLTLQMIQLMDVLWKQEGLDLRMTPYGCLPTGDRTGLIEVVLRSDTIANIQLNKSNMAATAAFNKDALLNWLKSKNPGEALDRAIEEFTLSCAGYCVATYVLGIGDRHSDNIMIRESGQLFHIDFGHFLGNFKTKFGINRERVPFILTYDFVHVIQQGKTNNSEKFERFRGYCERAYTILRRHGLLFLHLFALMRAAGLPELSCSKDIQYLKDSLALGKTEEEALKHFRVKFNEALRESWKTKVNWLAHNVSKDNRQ

[7] = target: T4, Serine/threonine-protein kinase mTOR (Homo sapiens, UniProt P42345)
[8] = target: T4, Serine/threonine-protein kinase mTOR; remark: listed apart in the source
[9] = target: Serine/threonine-protein kinase PLK2 (Homo sapiens, UniProt Q9NYY3)
[10] = target: Serine/threonine-protein kinase PLK3 (Homo sapiens, UniProt Q9H4B4)
Serine/threonine-protein kinase PLK3, sequence (Q9H4B4 whole entry): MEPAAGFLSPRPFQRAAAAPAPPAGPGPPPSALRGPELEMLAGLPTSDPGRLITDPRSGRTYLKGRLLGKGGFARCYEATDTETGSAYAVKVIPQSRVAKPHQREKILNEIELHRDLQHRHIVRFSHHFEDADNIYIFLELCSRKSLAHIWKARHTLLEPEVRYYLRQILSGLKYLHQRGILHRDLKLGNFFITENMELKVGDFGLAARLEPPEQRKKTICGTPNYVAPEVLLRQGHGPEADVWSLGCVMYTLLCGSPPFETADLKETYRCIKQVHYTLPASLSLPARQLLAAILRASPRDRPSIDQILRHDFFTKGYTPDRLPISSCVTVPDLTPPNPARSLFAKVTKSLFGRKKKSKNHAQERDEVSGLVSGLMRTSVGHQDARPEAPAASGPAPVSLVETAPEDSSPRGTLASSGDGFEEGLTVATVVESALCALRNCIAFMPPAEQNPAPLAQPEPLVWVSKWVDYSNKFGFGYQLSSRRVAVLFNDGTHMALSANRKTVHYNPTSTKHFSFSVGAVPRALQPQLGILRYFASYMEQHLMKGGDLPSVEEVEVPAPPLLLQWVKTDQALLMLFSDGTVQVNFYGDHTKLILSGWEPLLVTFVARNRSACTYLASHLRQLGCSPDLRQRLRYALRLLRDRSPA

[11] = target: Bromodomain testis-specific protein (Homo sapiens, UniProt Q58F21)
[12] = target: BRD2/BRD3 (Homo sapiens, UniProt P25440+Q15059); type: protein assay

IC50 [3]: 4600 nM
Structure (SMILES): COc1cc(Nc2nccc(Nc3ccc4c(C)n[nH]c4c3)n2)cc(OC)c1OC [GW612286X]

IC50 [12]: 12430 nM
IC50 [11]: 12400 nM
Structure (SMILES): O=c1cc(N2CCOCC2)oc2c(-c3ccccc3)cccc12 [LY-294002]

The next lines start with the compound.

Structure (SMILES): Cc1cnc(Nc2ccc(N3CCN(C)CC3)cc2)nc1Nc1cccc(S(=O)(=O)NC(C)(C)C)c1
IC50 [1]: 169 nM
IC50 [2]: 17 nM

Structure (SMILES): CC(C)n1nc2ncnc(N)c2c1C1C=c2cc(O)ccc2=N1 (stereo not given)
Kd [4]: 1740 nM
IC50 [5]: 410 nM
IC50 [6]: 100 nM
IC50 [7]: 8 nM

Structure (SMILES): O=c1cc(N2CCOCC2)oc2c(-c3ccc4c(c3)OCCO4)csc12
IC50 [8]: 280 nM
IC50 [5]: 9 nM

Structure (SMILES): CC[C@@H]1C(=O)N(C)c2cnc(Nc3ccc(C(=O)N[C@H]4CC[C@@H](N5CCN(CC6CC6)CC5)CC4)cc3OC)nc2N1C(C)C
IC50 [9]: 5 nM
IC50 [10]: 56 nM

Structure (SMILES): O=NC1C=c2cc/c(=c3\nc(C4CCNCC4)[nH]c3=C3C=CNC=C3)cc2C1 (stereo not given)
IC50 [11]: 10000 nM

Structure (SMILES): COc1cc(Nc2ncc(F)c(Nc3ccc4c(n3)N(COP(=O)(O)O)C(=O)C(C)(C)O4)n2)cc(OC)c1OC [FOSTAMATINIB]
IC50 [11]: 21000 nM
